Oligonucleotides are written 5' to 3', each unit as a sugar letter and its base; * is a phosphorothioate linkage, no mark a phosphodiester; rarer units and linkages stand in square brackets, end groups in braces. Plain capitals give the bases only. e = 2'-O-(2-methoxyethyl) (MOE); [5mC] = 5-methylcytosine; d = 2'-deoxy (DNA)

The test system of this data set is mouse glucose-6-phosphatase translocase mRNA. As to the kind of experiment: Antisense inhibition of mouse glucose-6-phosphatase translocase mRNA in primary mouse hepatocytes, 50 nM (Table 5). In kind it is cell-based. As to conditions: 50 nM oligonucleotide, mRNA by real-time PCR, normalized with RIBOGREEN
How it is done:
Primary mouse hepatocytes were prepared from CD-1 mice purchased from Charles River Labs. Primary mouse hepatocytes were routinely cultured in Hepatocyte Attachment Media supplemented with 10% fetal bovine serum (Invitrogen Life Technologies, Carlsbad, Calif.), 250 nM dexamethasone, and 10 nM bovine insulin (Sigma-Aldrich, St. Louis, Mo.). Cells were seeded into 96-well plates (Falcon-Primaria #353872, BD Biosciences, Bedford, Mass.) at a density of approximately 4,000-6,000 cells/well for use in oligomeric compound transfection experiments.
Quantitation of glucose 6-phosphatase translocase mRNA levels was accomplished by real-time quantitative PCR using the ABI PRISM™ 7600, 7700, or 7900 Sequence Detection System (PE-Applied Biosystems, Foster City, Calif.) according to manufacturer's instructions.
Prior to quantitative PCR analysis, primer-probe sets specific to the target gene being measured were evaluated for their ability to be “multiplexed” with a GAPDH amplification reaction. After isolation the RNA is subjected to sequential reverse transcriptase (RT) reaction and real-time PCR, both of which are performed in the same well. RT and PCR reagents were obtained from Invitrogen Life Technologies (Carlsbad, Calif.). […] The RT reaction was carried out by incubation for 30 minutes at 48° C. Following a 10 minute incubation at 95° C. to activate the PLATINUM® Taq, 40 cycles of a two-step PCR protocol were carried out: 95° C. for 15 seconds (denaturation) followed by 60° C. for 1.5 minutes (annealing/extension).
Gene target quantities obtained by RT, real-time PCR were normalized using either the expression level of GAPDH, a gene whose expression is constant, or by quantifying total RNA using RiboGreen™ (Molecular Probes, Inc. Eugene, Oreg.). GAPDH expression was quantified by RT, real-time PCR, by being run simultaneously with the target, multiplexing, or separately. Total RNA was quantified using RiboGreen™ RNA quantification reagent (Molecular Probes, Inc. Eugene, Oreg.).
A series of oligomeric compounds was designed to target different regions of mouse glucose-6-phosphatase translocase, using published sequences cited in Table 1. All compounds in Table 5 are chimeric oligonucleotides (“gapmers”) 20 nucleotides in length, composed of a central “gap” region consisting of 10 2′-deoxynucleotides, which is flanked on both sides (5′ and 3′) by five-nucleotide “wings”. The wings are composed of 2′-O-(2-methoxyethyl) nucleotides, also known as 2′-MOE nucleotides. The internucleoside (backbone) linkages are phosphorothioate throughout the oligonucleotide. All cytidine residues are 5-methylcytidines. The compounds were analyzed for their effect on gene target mRNA levels by quantitative real-time PCR as described in other examples herein, using the following primer-probe set designed to hybridize to mouse glucose-6-phosphatase translocase: • forward primer: […] (SEQ ID NO: 66) • reverse primer: CCATCCCAGCCATCATGAG (SEQ ID NO: 67) and the PCR probe was: FAM-[…]-TAMRA (SEQ ID NO: 68) where FAM is the fluorescent reporter dye and TAMRA is the quencher dye. Mouse target gene quantities were normalized by quantifying total RNA using RIBOGREEN™.
Data are from experiments in which primary mouse hepatocytes were treated with 50 nM of the antisense oligonucleotides of the present invention. A reduction in expression is expressed as percent inhibition in Table 5. If present, “N.D.” indicates “not determined”. The target regions to which these oligomeric compounds are inhibitory are herein referred to as “validated target segments.”
For orientation: In qPCR the cycle at which signal appears reflects the starting amount.
For the sequence “AAACGTAAAGGTTCTGTGTT (eA*eA*eA*e[5mC]*eG*dT*dA*dA*dA*dG*dG*dT*dT*d[5mC]*dT*eG*eT*eG*eT*eT; antisense) [ISIS 148990]”, the “% Inhib” value came to 16%.
On to “AACCAGGATCCAGATCTTGG (eA*eA*e[5mC]*e[5mC]*eA*dG*dG*dA*dT*d[5mC]*d[5mC]*dA*dG*dA*dT*e[5mC]*eT*eT*eG*eG; antisense) [ISIS 148976]”, for which the “% Inhib” value is on record as 48%.
For the sequence “AAGGCCTCCGACCTCGAGGG (eA*eA*eG*eG*e[5mC]*d[5mC]*dT*d[5mC]*d[5mC]*dG*dA*d[5mC]*d[5mC]*dT*d[5mC]*eG*eA*eG*eG*eG; antisense) [ISIS 148967]”, the “% Inhib” value came to 34%.
Take “AAGTCGGTTTGCCCTCTATA (eA*eA*eG*eT*e[5mC]*dG*dG*dT*dT*dT*dG*d[5mC]*d[5mC]*d[5mC]*dT*e[5mC]*eT*eA*eT*eA; antisense) [ISIS 149007]”: the “% Inhib” value worked out at 64%.
The figure for “AATGCTTCCTACAAGGCCTC (eA*eA*eT*eG*e[5mC]*dT*dT*d[5mC]*d[5mC]*dT*dA*d[5mC]*dA*dA*dG*eG*e[5mC]*e[5mC]*eT*e[5mC]; antisense) [ISIS 148968]” is 26%; for “ACAAAGGAGAAGGTTTTGCG (eA*e[5mC]*eA*eA*eA*dG*dG*dA*dG*dA*dA*dG*dG*dT*dT*eT*eT*eG*e[5mC]*eG; antisense) [ISIS 148943]” it is 47%; for “ACAACTGTGCTGGCTCCACA (eA*e[5mC]*eA*eA*e[5mC]*dT*dG*dT*dG*d[5mC]*dT*dG*dG*d[5mC]*dT*e[5mC]*e[5mC]*eA*e[5mC]*eA; antisense) [ISIS 148982]” it is 69%.
In the case of “ACAGAGACAGCCCTGCCTTC (eA*e[5mC]*eA*eG*eA*dG*dA*d[5mC]*dA*dG*d[5mC]*d[5mC]*d[5mC]*dT*dG*e[5mC]*e[5mC]*eT*eT*e[5mC]; antisense) [ISIS 148970]”, the “% Inhib” value is given as 78%.
As for “ACAGGGCCAGTGTGCTGCGC (eA*e[5mC]*eA*eG*eG*dG*d[5mC]*d[5mC]*dA*dG*dT*dG*dT*dG*d[5mC]*eT*eG*e[5mC]*eG*e[5mC]; antisense) [ISIS 148958]”, the “% Inhib” value stood at 50%.
The figure for “ACCCACAAGGGCGGACTGCC (eA*e[5mC]*e[5mC]*e[5mC]*eA*d[5mC]*dA*dA*dG*dG*dG*d[5mC]*dG*dG*dA*e[5mC]*eT*eG*e[5mC]*e[5mC]; antisense) [ISIS 148964]” is 0%; for “AGACCACAAGGTAGCCAGTG (eA*eG*eA*e[5mC]*e[5mC]*dA*d[5mC]*dA*dA*dG*dG*dT*dA*dG*d[5mC]*e[5mC]*eA*eG*eT*eG; antisense) [ISIS 148961]” it is 36%.
In the case of “AGCCATCATGAGTAGCAATA (eA*eG*e[5mC]*e[5mC]*eA*dT*d[5mC]*dA*dT*dG*dA*dG*dT*dA*dG*e[5mC]*eA*eA*eT*eA; antisense) [ISIS 148973]”, the “% Inhib” value came to 35%.
Take “AGCCCCTGTGCCAGACCATT (eA*eG*e[5mC]*e[5mC]*e[5mC]*d[5mC]*dT*dG*dT*dG*d[5mC]*d[5mC]*dA*dG*dA*e[5mC]*e[5mC]*eA*eT*eT; antisense) [ISIS 148953]”: the “% Inhib” value stood at 58%.
Turning to “AGGGTATTCATGAGAGTGGT (eA*eG*eG*eG*eT*dA*dT*dT*d[5mC]*dA*dT*dG*dA*dG*dA*eG*eT*eG*eG*eT; antisense) [ISIS 149006]”, the “% Inhib” value was 36%.
For “AGGTTCTGTGTTAGCCAGAG (eA*eG*eG*eT*eT*d[5mC]*dT*dG*dT*dG*dT*dT*dA*dG*d[5mC]*e[5mC]*eA*eG*eA*eG; antisense) [ISIS 148989]”, the “% Inhib” value was determined as 58%.
With “ATAGGCCGTGGCGAGGGTTC (eA*eT*eA*eG*eG*d[5mC]*d[5mC]*dG*dT*dG*dG*d[5mC]*dG*dA*dG*eG*eG*eT*eT*e[5mC]; antisense) [ISIS 148972]”, the “% Inhib” value came to 36%.
For the sequence “ATCTTGGGTGAGTCACTGGT (eA*eT*e[5mC]*eT*eT*dG*dG*dG*dT*dG*dA*dG*dT*d[5mC]*dA*e[5mC]*eT*eG*eG*eT; antisense) [ISIS 148975]”, the “% Inhib” value is reported as 42%.
Regarding “ATGAGAGGTTCCACACAAGT (eA*eT*eG*eA*eG*dA*dG*dG*dT*dT*d[5mC]*d[5mC]*dA*d[5mC]*dA*e[5mC]*eA*eA*eG*eT; antisense) [ISIS 148979]”, the “% Inhib” value is reported as 54%.
Regarding “ATGGAGTCTAGAACCAAACG (eA*eT*eG*eG*eA*dG*dT*d[5mC]*dT*dA*dG*dA*dA*d[5mC]*d[5mC]*eA*eA*eA*e[5mC]*eG; antisense) [ISIS 148995]”, the “% Inhib” value came out at 56%.
Consider “CACAGAAACGTAAAGGTTCT (e[5mC]*eA*e[5mC]*eA*eG*dA*dA*dA*d[5mC]*dG*dT*dA*dA*dA*dG*eG*eT*eT*e[5mC]*eT; antisense) [ISIS 148991]”, for which the “% Inhib” value is on record as 22%.
With “CACAGACTCTTGACTGCTCC (e[5mC]*eA*e[5mC]*eA*eG*dA*d[5mC]*dT*d[5mC]*dT*dT*dG*dA*d[5mC]*dT*eG*e[5mC]*eT*e[5mC]*e[5mC]; antisense) [ISIS 148939]”, the “% Inhib” value was determined as 41%.
Take “CACGGCTCCCAAAACCAGGA (e[5mC]*eA*e[5mC]*eG*eG*d[5mC]*dT*d[5mC]*d[5mC]*d[5mC]*dA*dA*dA*dA*d[5mC]*e[5mC]*eA*eG*eG*eA; antisense) [ISIS 148977]”: the “% Inhib” value came out at 9%.
With “CAGAGCGATCTCATCCACCA (e[5mC]*eA*eG*eA*eG*d[5mC]*dG*dA*dT*d[5mC]*dT*d[5mC]*dA*dT*d[5mC]*e[5mC]*eA*e[5mC]*e[5mC]*eA; antisense) [ISIS 148944]”, the “% Inhib” value is listed as 35%.
“CAGAGGGTCCAGATTTCGGA (e[5mC]*eA*eG*eA*eG*dG*dG*dT*d[5mC]*d[5mC]*dA*dG*dA*dT*dT*eT*e[5mC]*eG*eG*eA; antisense) [ISIS 148959]”: the “% Inhib” value was −6%.
For “CCAAACTGGGATGGCTCAAA (e[5mC]*e[5mC]*eA*eA*eA*d[5mC]*dT*dG*dG*dG*dA*dT*dG*dG*d[5mC]*eT*e[5mC]*eA*eA*eA; antisense) [ISIS 148954]”, the “% Inhib” value was 48%.
As for “CCAAACTTCCAGCCAGGTTC (e[5mC]*e[5mC]*eA*eA*eA*d[5mC]*dT*dT*d[5mC]*d[5mC]*dA*dG*d[5mC]*d[5mC]*dA*eG*eG*eT*eT*e[5mC]; antisense) [ISIS 148956]”, the “% Inhib” value turned out to be 27%.
Turning to “CCACAGGCCATTAATACTCA (e[5mC]*e[5mC]*eA*e[5mC]*eA*dG*dG*d[5mC]*d[5mC]*dA*dT*dT*dA*dA*dT*eA*e[5mC]*eT*e[5mC]*eA; antisense) [ISIS 148999]”, the “% Inhib” value worked out at 45%.
On to “CCAGTGGACAGCACCCAGAG (e[5mC]*e[5mC]*eA*eG*eT*dG*dG*dA*d[5mC]*dA*dG*d[5mC]*dA*d[5mC]*d[5mC]*e[5mC]*eA*eG*eA*eG; antisense) [ISIS 148960]”, for which the “% Inhib” value was 28%.
The figure for “CCATTAAGAAACCAAGGAGC (e[5mC]*e[5mC]*eA*eT*eT*dA*dA*dG*dA*dA*dA*d[5mC]*d[5mC]*dA*dA*eG*eG*eA*eG*e[5mC]; antisense) [ISIS 148952]” is 20%; for “CCGTAGCCTTGGGCTGCCAT (e[5mC]*e[5mC]*eG*eT*eA*dG*d[5mC]*d[5mC]*dT*dT*dG*dG*dG*d[5mC]*dT*eG*e[5mC]*e[5mC]*eA*eT; antisense) [ISIS 148941]” it is 62%.
For “CCGTGTCCTGCCAGTAAGGC (e[5mC]*e[5mC]*eG*eT*eG*dT*d[5mC]*d[5mC]*dT*dG*d[5mC]*d[5mC]*dA*dG*dT*eA*eA*eG*eG*e[5mC]; antisense) [ISIS 148986]”, the “% Inhib” value was determined as 55%.
In the case of “CCTAGGAGAAGAAGAAGGGT (e[5mC]*e[5mC]*eT*eA*eG*dG*dA*dG*dA*dA*dG*dA*dA*dG*dA*eA*eG*eG*eG*eT; antisense) [ISIS 148998]”, the “% Inhib” value is on record as 21%.
In the case of “CGAGGGTTCCCATACAGAGA (e[5mC]*eG*eA*eG*eG*dG*dT*dT*d[5mC]*d[5mC]*d[5mC]*dA*dT*dA*d[5mC]*eA*eG*eA*eG*eA; antisense) [ISIS 148971]”, the “% Inhib” value is reported as 88%.

Source of the values: US8258114B2, “Modulation of glucose-6-phosphatase translocase expression” (Isis Pharmaceuticals, Inc., priority 2004, dated 2012).
